According to ChEMBL document CHEMBL1145886, “Design, synthesis, and biological evaluation of 6-substituted-3-(4-methanesulfonylphenyl)-4-phenylpyran-2-ones: a novel class of diarylheterocyclic selective cyclooxygenase-2 inhibitors” (J Med Chem, 2003):
The source made the active and inactive calls. The calls are words filed in the database; no cut-off is given here.

How the values were obtained:
[1] = target: T1, Prostaglandin G/H synthase 2 (Bos taurus, UniProt O62698)
T1 sequence (O62698 whole entry): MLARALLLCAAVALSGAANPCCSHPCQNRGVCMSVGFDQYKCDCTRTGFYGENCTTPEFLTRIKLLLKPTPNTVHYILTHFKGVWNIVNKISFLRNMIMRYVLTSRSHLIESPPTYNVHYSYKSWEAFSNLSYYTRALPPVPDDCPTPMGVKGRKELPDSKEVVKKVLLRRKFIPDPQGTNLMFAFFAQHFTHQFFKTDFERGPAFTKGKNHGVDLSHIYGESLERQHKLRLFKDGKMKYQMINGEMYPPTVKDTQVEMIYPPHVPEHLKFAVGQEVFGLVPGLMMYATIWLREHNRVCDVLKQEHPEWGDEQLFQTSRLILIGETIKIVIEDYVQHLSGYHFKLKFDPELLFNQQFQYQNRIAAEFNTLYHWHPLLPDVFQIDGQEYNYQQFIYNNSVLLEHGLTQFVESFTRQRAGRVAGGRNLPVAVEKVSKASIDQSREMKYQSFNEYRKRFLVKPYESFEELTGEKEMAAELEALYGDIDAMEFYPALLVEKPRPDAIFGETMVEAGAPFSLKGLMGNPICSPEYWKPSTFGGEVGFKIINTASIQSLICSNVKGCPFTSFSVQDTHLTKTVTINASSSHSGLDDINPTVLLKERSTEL
Description: In vitro inhibitory activity against prostaglandin G/H synthase 2 (COX-2)

[2] = target: T2, Prostaglandin G/H synthase 1 (Ovis aries, UniProt P05979)
T2 sequence (P05979 whole entry): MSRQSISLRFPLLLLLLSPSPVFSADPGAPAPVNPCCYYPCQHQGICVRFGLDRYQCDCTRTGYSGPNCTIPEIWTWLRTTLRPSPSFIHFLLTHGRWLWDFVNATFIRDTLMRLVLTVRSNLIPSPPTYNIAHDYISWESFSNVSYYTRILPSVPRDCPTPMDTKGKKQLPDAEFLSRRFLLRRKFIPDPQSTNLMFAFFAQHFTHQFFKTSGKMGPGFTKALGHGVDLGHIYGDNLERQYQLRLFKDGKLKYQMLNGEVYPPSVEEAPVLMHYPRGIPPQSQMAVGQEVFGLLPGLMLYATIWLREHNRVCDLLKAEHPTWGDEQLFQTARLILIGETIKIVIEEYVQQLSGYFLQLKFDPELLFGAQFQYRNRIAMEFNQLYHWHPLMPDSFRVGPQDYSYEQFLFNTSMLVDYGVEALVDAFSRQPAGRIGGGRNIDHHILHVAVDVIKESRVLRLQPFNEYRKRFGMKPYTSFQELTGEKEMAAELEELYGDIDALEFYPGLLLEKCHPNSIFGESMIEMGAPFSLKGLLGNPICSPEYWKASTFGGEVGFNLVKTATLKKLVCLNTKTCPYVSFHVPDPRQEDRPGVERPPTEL
Description: In vitro inhibitory activity against Prostaglandin G/H synthase 1 (COX-1)

Rattus norvegicus [3] = assay: In vivo antiinflammatory activity against rat carrageenan-induced foot paw edema model at 5 hr following a 1 mg/kg oral dose; type: functional
Rattus norvegicus [4] = assay: In vivo antiinflammatory activity against rat carrageenan-induced foot paw edema model at 3 hr following a 1 mg/kg oral dose; type: functional
Rattus norvegicus [5] = assay: Analgesic activity was determined in rat using 4% sodium chloride-induced abdominal constriction assay at a duration of 30 min following a 1 mg/kg intraperitoneal dose; type: functional; conditions: Abdomen, ip, 0.5 h
Rattus norvegicus [6] = assay: Analgesic activity was determined in rat using 4% sodium chloride-induced abdominal constriction assay at a duration of 60 min following a 1 mg/kg intraperitoneal dose; type: functional; conditions: Abdomen, ip, 1 h
Rattus norvegicus [7] = assay: In vivo antiinflammatory activity against rat carrageenan-induced foot paw edema model at 3 hr following a 1 mg/kg oral dose; NA is inactive; type: functional, organism-based; parameters: dose 1 mg/kg; conditions: at 1 mg/kg

| IC50 [1] [µM] | IC50 [2] [µM] | Compound | inhibition in vivo at 1 mg/kg (Rattus norvegicus [3]) [%] | inhibition in vivo at 1 mg/kg (Rattus norvegicus [4]) [%] | inhibition in vivo at 1 mg/kg (Rattus norvegicus [5]) [%] | inhibition in vivo at 1 mg/kg (Rattus norvegicus [6]) [%] | inhibition (Rattus norvegicus [7]) |
| --- | --- | --- | --- | --- | --- | --- | --- |
| 13.6 | 15.7 | CC(C)c1cc(-c2ccc(F)cc2)c(-c2ccc(S(C)(=O)=O)cc2)c(=O)o1 | 69.1 | 35.8 | 50.9 | 20.7 | – |
| 2.7 | > 100 | CC(C)(C)Oc1cc(-c2ccccc2)c(-c2ccc(S(C)(=O)=O)cc2)c(=O)o1 | 30.1 | 29 | 73.8 | 80.9 | – |
| 53.3 | 301 | CS(=O)(=O)c1ccc(-c2c(-c3ccc(F)cc3)cc(OCc3ccc(Cl)cc3)oc2=O)cc1 | – | – | – | – | – |
| 0.1 | 288 | CCOc1cc(-c2ccc(F)cc2)c(-c2ccc(S(C)(=O)=O)cc2)c(=O)o1 | 67.8 | 32.7 | 42.8 | 75.7 | – |
| 20.4 | 68.5 | CC(C)(C)Oc1cc(-c2ccc(F)cc2)c(-c2ccc(S(C)(=O)=O)cc2)c(=O)o1 | – | – | – | – | – |
| 83.6 | 560 | CC(C)Oc1cc(-c2ccc(F)cc2)c(-c2ccc(S(C)(=O)=O)cc2)c(=O)o1 | – | – | – | – | – |

Continued, molecule first:

| Compound | IC50 [1] [µM] | IC50 [2] [µM] | inhibition in vivo at 1 mg/kg (Rattus norvegicus [3]) [%] | inhibition in vivo at 1 mg/kg (Rattus norvegicus [4]) [%] | inhibition in vivo at 1 mg/kg (Rattus norvegicus [5]) [%] | inhibition in vivo at 1 mg/kg (Rattus norvegicus [6]) [%] | inhibition (Rattus norvegicus [7]) |
| --- | --- | --- | --- | --- | --- | --- | --- |
| CCCSc1cc(-c2ccccc2)c(-c2ccc(S(C)(=O)=O)cc2)c(=O)o1 | > 100 | > 100 | – | – | – | – | – |
| Cc1ccc(-c2cc(C(F)(F)F)nn2-c2ccc(S(N)(=O)=O)cc2)cc1 [CELECOXIB] | – | – | 58.2 | 79.9 | 31.7 | 62 | – |
| CS(=O)(=O)c1ccc(-c2c(-c3ccccc3)cc(OCc3ccc(Cl)cc3)oc2=O)cc1 | 416 | 50.7 | – | – | – | – | – |
| CC(C)Cc1ccc(C(C)C(=O)O)cc1 (stereo not drawn) [IBUPROFEN] | – | – | 41.5 | 56.2 | – | – | – |
| CC(C)c1cc(-c2ccccc2)c(-c2ccc(S(C)(=O)=O)cc2)c(=O)o1 | – | – | 19.5 | 9.8 | 67.8 | 56.9 | – |
| COc1cc(-c2ccccc2)c(-c2ccc(S(C)(=O)=O)cc2)c(=O)o1 | – | – | 22 | – | 55.2 | 83.4 | inactive |
| COc1cc(-c2ccc(F)cc2)c(-c2ccc(S(C)(=O)=O)cc2)c(=O)o1 | 59.5 | > 1000 | 30 | 30.6 | 49 | 72.6 | – |
| CCSc1cc(-c2ccccc2)c(-c2ccc(S(C)(=O)=O)cc2)c(=O)o1 | – | – | 19.5 | 9.2 | 81 | 77.4 | – |
| CC(C)COc1cc(-c2ccccc2)c(-c2ccc(S(C)(=O)=O)cc2)c(=O)o1 | 1.8 | 3.1 | – | – | – | – | – |
| CCSc1cc(-c2ccc(F)cc2)c(-c2ccc(S(C)(=O)=O)cc2)c(=O)o1 | 1.44 | > 100 | 16.8 | 25.8 | 54.3 | 66 | – |
| CC(C)COc1cc(-c2ccc(F)cc2)c(-c2ccc(S(C)(=O)=O)cc2)c(=O)o1 | 35 | 42.6 | – | – | – | – | – |
| Cc1cc(-c2ccccc2)c(-c2ccc(S(C)(=O)=O)cc2)c(=O)o1 | – | – | 23.5 | 12.5 | 57 | 60.4 | – |
| Cc1cc(-c2ccc(F)cc2)c(-c2ccc(S(C)(=O)=O)cc2)c(=O)o1 | 125 | 201 | – | – | – | – | – |
